Test results reported in ChEMBL document CHEMBL3430912, “GSK Tres Cantos Anti-Kinetoplastid Screening (TCAKS) Data”.

What was measured:
[1] = GSK_TCAKS: pIC50 HepG2 human cell line viability assay using luminiscence. […] Seeding density was checked to ensure that new mono-layers were not more than 50% confluent at the time of harvesting. Cell suspension was added to 500 mL of the same medium at a final density of 1.2 * 10^5 cells/mL. This cell suspension was dispensed (25 uL, 3000 cells per well) into 384-well clear-bottom plates using a Multidrop Combi dispenser. Prior to addition of the cell suspension, the screening compounds (250 nL) were pre-dispensed into the plates with an Echo liquid handler. Plates were incubated for 48 h at 37C, 5% CO2. After incubation, plates equilibrated at room temperature for 30 min before proceeding to develop the luminescent signal. The signal developer, CellTiter-Glo Reagent, was allowed to equilibrate at room temperature for 30 min and added to the plates (25uL per well) using a Multidrop Combi dispenser. Plates were left for 10 min at room temperature for stabilization and then read using a ViewLux.; type: toxicity, cell-based
[2] = test system: Trypanosoma cruzi; assay: (§1) GSK_TCAKS: pIC50 Trypanosoma cruzi Imaging: Infected Cells. […] Cells were then washed once with PBS before infection. T. cruzi trypomastigotes, collected at days 5 to 8 after infection from LLC-MK2 parasite infected cultures, were allowed to swim out for 4h at 37C from a centrifuged pellet (2,500 rpm/10 min/room temperature). Trypomastigotes were then collected and counted in a CASY Cell Counter. Trypomastigotes, in supplemented DMEM, were added to H9c2 cultures in a multiplicity of infection of 1 and incubated for 18 h. Cells were washed once with PBS before incubation of the infected H9c2 monolayer with trypsin (Life-Technologies) to detach cells from the flask. Cells were counted in a CASY Cell Counter using a 150 um capillary and their density set at 5 * 10^4 cells per mL in supplemented assay DMEM. Infected H9c2 were dispensed into 384-well poly-lysine coated assay plates at 50uL per well using a Multidrop Combi dispenser. After seeding them, the plates were incubated at 37C, 5% CO2 for 72h. Cultures were then fixed and stained by addition of 50 uL of a solution containing 8% formaldehyde and 4 uM DRAQ5 DNA dye (BioStatus, UK) per well. […] Five images were collected per well for reliable statistical analysis. Automated image analysis was performed with a script developed on Acapella High Content Imaging and Analysis Software (PerkinElmer). Output: percentage of infected cells per well as a second infection marker.; type: functional, organism-based, Rattus norvegicus; details: H9c2, 4 h
[3] = test system: Trypanosoma brucei brucei; assay: GSK_TCAKS: pIC50 Trypanosoma brucei viability assay using luminiscence. Assay plates (1536-well) were prepared. T. brucei cultures were harvested and counted in a CASY cell counter. A parasite suspension was prepared at a final concentration of 5 * 10^4 cells/mL in complete HMI9 medium and 6uL was dispensed to all wells containing compounds using a Multidrop Combi dispenser. 6uL of HMI9 media with 0.4% DMSO were dispensed to control columns. Plates were incubated for 24 h at 37C, 5% CO2 then tempered for 10 min at room temperature. ATP content was quantified by adding 4 uL of CellTiter-Glo Reagent (Promega) according to the manufacturer's instructions. Luminescence was measured using a ViewLux.; type: functional, organism-based; details: Lister 427, CASY
[4] = test system: Trypanosoma cruzi; assay: as §1, with “H2C9” for “Trypanosoma cruzi”, “H9c2 Host Cardiomyocytes.” for “Infected Cells.”, “Number” for “percentage”, “H9c2 Host Cardiomyocytes nuclei to determine drug-related cytotoxicity.” for “infected cells per well as a second infection marker.”; type: functional, organism-based, Rattus norvegicus; details: H9c2, 4 h
[5] = target: Sterol 14-alpha demethylase (Trypanosoma cruzi (strain CL Brener), UniProt Q7Z1V1); assay: GSK_TCAKS: pIC50 CYP51 from Trypanosoma cruzi.; type: functional
Chain of Sterol 14-alpha demethylase (Q7Z1V1 whole entry): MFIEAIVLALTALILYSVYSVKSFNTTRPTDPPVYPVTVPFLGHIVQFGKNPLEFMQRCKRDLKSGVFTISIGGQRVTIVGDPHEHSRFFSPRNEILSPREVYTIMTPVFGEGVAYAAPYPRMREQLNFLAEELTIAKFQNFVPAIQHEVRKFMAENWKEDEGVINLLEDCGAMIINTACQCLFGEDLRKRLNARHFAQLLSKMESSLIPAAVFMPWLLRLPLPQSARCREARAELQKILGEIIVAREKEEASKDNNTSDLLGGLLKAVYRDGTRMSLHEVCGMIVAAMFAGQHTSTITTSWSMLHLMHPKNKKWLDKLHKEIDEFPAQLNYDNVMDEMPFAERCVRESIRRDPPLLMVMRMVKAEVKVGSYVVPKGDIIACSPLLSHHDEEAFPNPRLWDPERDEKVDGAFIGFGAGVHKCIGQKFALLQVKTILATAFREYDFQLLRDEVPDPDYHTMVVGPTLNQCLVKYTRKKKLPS

[6] = test system: Leishmania donovani; assay: (§2) GSK_TCAKS: pIC50 Leishmania donovani Imaging: THP-1 Host Macrophages. Assay plates (384-well) were prepared by adding 250nL of compound to each well. For single shot assay, the final compound concentration was 5 uM. […] Automated image analysis was performed with a script developed on Acapella High Content Imaging and Analysis Software (PerkinElmer). Output: THP-1 cell count were reported for each well.; type: functional, organism-based, Homo sapiens
[7] = test system: Trypanosoma cruzi; assay: GSK_TCAKS: pIC50 Trypanosoma cruzi Imaging: Amastigotes/Cell. […] Cells were then washed once with PBS before infection. T. cruzi trypomastigotes, collected at days 5 to 8 after infection from LLC-MK2 parasite infected cultures, were allowed to swim out for 4h at 37C from a centrifuged pellet (2,500 rpm/10 min/room temperature). Trypomastigotes were then collected and counted in a CASY Cell Counter. Trypomastigotes, in supplemented DMEM, were added to H9c2 cultures in a multiplicity of infection of 1 and incubated for 18 h. Cells were washed once with PBS before incubation of the infected H9c2 monolayer with trypsin (Life-Technologies) to detach cells from the flask. Cells were counted in a CASY Cell Counter using a 150 um capillary and their density set at 5 * 10^4 cells per mL in supplemented assay DMEM. Infected H9c2 were dispensed into 384-well poly-lysine coated assay plates at 50uL per well using a Multidrop Combi dispenser. After seeding them, the plates were incubated at 37C, 5% CO2 for 72h. Cultures were then fixed and stained by addition of 50 uL of a solution containing 8% formaldehyde and 4 uM DRAQ5 DNA dye (BioStatus, UK) per well. […] Five images were collected per well for reliable statistical analysis. Automated image analysis was performed with a script developed on Acapella High Content Imaging and Analysis Software (PerkinElmer). Output: number of amastigotes per cell as infection level measurement.; type: functional, organism-based, Rattus norvegicus; details: H9c2, 4 h
[8] = test system: Trypanosoma cruzi; assay: GSK_TCAKS: pIC50 Trypanosoma cruzi viability assay using beta-GAL activity. This assay was run at single shot at 5uM compound concentration per well. The biological reagents consisted of NIH-3T3 host cells and trypomastigotes parasitic cells; both cell types were set to a 3.3 * 10^5 cells/mL dilution in assay DMEM by means of a CASY cell counter device using a 60um capillary. 6 uL of the mixture were dispensed per well (about 1 * 10^3 host-cells and 1 * 10^3 parasites) with a Multidrop Combi dispenser. […] In all wells, the percentage of DMSO never exceeded 0.5%. Plates incubated for four days at 37C, 5% CO2. The substrate used for the assay fluorescence intensity (FLINT) readout was resorufin-beta-D-galactopiranoside (Sigma-Aldrich) at 5uM per well. It was diluted in PBS supplemented with the soft detergent Igepal (Fluka).; type: functional, organism-based, Mus musculus; details: Tulahuen, NIH3T3
[9] = test system: Trypanosoma brucei brucei; assay: GSK_TCAKS: pIC50 Trypanosoma brucei viability assay using fluorescence intensity. Assay plates (1536-well) were prepared by dispensing 25nL of compound solution per well using an Echo acoustic dispenser (Labcyte).; type: functional, organism-based; details: Lister 427, 2 h
[10] = test system: Leishmania donovani; assay: as §2, with “Amastigotes/Macrophages.” for “THP-1 Host Macrophages.”, “Average number of amastigotes per macrophage” for “THP-1”, “cell” for “cell count”; type: functional, organism-based, Homo sapiens; details: THP-1
[11] = test system: Leishmania donovani; assay: GSK_TCAKS: pIC50 Leishmania donovani viability assay using fluorescence intensity. Assay plates (1536-well) were prepared by adding 30nL per well of compound. For single shot assay, the final compound concentration was 5uM. […] Briefly, eGFP LdBOB axenic amastigotes were harvested, fixed and counted in a CASY cell counter (Roche-Applied Science). A final concentration of 1.5 * 10^5 cells per well were prepared in amastigote media containing 500 U/mL penicillin/streptomycin (Invitrogen) and 6uL was dispensed to each experimental well using a Multidrop Combi dispenser (Thermo Scientific). 6uL of assay media was dispensed to control columns used as reference for 100% compound response. Following incubation for 72 h at 37C, 5% CO2, 2 uL of resazurin was added to each well at a final concentration of 0.5 mM in phosphate buffered saline (PBS) with IGEPAL (Sigma-Aldrich), 0.05% (v/v).; type: functional, organism-based
[12] = test system: Leishmania donovani; assay: as §2, with “Infected” for “THP-1 Host”, “Percent of infected macrophage cells” for “THP-1 cell count”; type: functional, organism-based, Homo sapiens; details: THP-1

SMILES: O=C(Nc1nc2ccccc2[nH]1)c1ccc2[nH]cnc2c1
- IC50 at 48 h [1]: 50.1 µM
- IC50 [2]: > 50.1 µM
- IC50 [3]: > 39.8 µM
- IC50 [4]: > 50.1 µM
- IC50 [5]: 5.01 µM
- IC50 [6]: > 50.1 µM
- IC50 [7]: 50.1 µM
- IC50 [8]: 25.1 µM
- IC50 [9]: > 39.8 µM
- IC50 [10]: 3.16 µM
- IC50 [11]: 2.51 µM
- IC50 [12]: 5.01 µM

SMILES: CNc1nc(C)nc(N2CCc3cc(C(=O)NCc4ccc(-c5nccn5C)cc4Cl)ccc32)n1
- IC50 at 48 h [1]: 31.6 µM
- IC50 [2]: 12.6 µM
- IC50 [3]: 20 µM
- IC50 [4]: 50.1 µM
- IC50 [5]: 1.58 µM
- IC50 [6]: 25.1 µM
- IC50 [7]: 5.01 µM
- IC50 [8]: 5.01 µM
- IC50 [9]: 12.6 µM
- IC50 [10]: 0.794 µM
- IC50 [11]: 5.01 µM
- IC50 [12]: 0.794 µM

SMILES: COc1ncc(-c2ccc3ncnc(N4CCOCC4)c3c2)cc1NS(C)(=O)=O
- IC50 at 48 h [1]: > 100 µM
- IC50 [2]: 6.31 µM
- IC50 [3]: 0.501 µM
- IC50 [4]: 1.58 µM
- IC50 [5]: 39.8 µM
- IC50 [6]: 1 µM
- IC50 [7]: 2.51 µM
- IC50 [8]: 0.501 µM
- IC50 [9]: 0.316 µM
- IC50 [10]: 0.631 µM
- IC50 [11]: 3.16 µM
- IC50 [12]: 5.01 µM

SMILES: COc1ccc(CNc2nsc3ccccc23)cc1OC
- IC50 at 48 h [1]: 50.1 µM
- IC50 [2]: 25.1 µM
- IC50 [3]: 6.31 µM
- IC50 [4]: > 50.1 µM
- IC50 [5]: 12.6 µM
- IC50 [6]: 25.1 µM
- IC50 [7]: 20 µM
- IC50 [8]: 6.31 µM
- IC50 [9]: 7.94 µM
- IC50 [10]: 5.01 µM
- IC50 [11]: 3.16 µM
- IC50 [12]: 6.31 µM

SMILES: CC1CN(Cc2ccc(C#N)cc2)CCN1c1ccc(NC(=O)c2ccccc2F)cc1 (stereo not drawn)
- IC50 at 48 h [1]: > 100 µM
- IC50 [2]: > 50.1 µM
- IC50 [3]: > 39.8 µM
- IC50 [4]: > 50.1 µM
- IC50 [5]: 31.6 µM
- IC50 [6]: > 50.1 µM
- IC50 [7]: > 50.1 µM
- IC50 [8]: 25.1 µM
- IC50 [9]: > 39.8 µM
- IC50 [10]: 5.01 µM
- IC50 [11]: 39.8 µM
- IC50 [12]: 10 µM

SMILES: COc1ncc(-c2ccc3nccc(-c4ccncc4)c3c2)cc1NS(C)(=O)=O
- IC50 at 48 h [1]: > 100 µM
- IC50 [2]: 25.1 µM
- IC50 [3]: 1 µM
- IC50 [4]: 5.01 µM
- IC50 [5]: 79.4 µM
- IC50 [6]: 3.16 µM
- IC50 [7]: 12.6 µM
- IC50 [8]: 1.58 µM
- IC50 [9]: 0.316 µM
- IC50 [10]: 0.631 µM
- IC50 [11]: 3.16 µM
- IC50 [12]: 2.51 µM

SMILES: CCCCc1cc(Nc2cc(C3CCC3)[nH]n2)nc(N2CCC2C(N)=O)n1 (stereo not drawn)
- IC50 at 48 h [1]: > 100 µM
- IC50 [2]: 3.16 µM
- IC50 [3]: 0.158 µM
- IC50 [4]: 0.794 µM
- IC50 [5]: > 100 µM
- IC50 [6]: 1 µM
- IC50 [7]: 1.58 µM
- IC50 [8]: 3.16 µM
- IC50 [9]: 0.126 µM
- IC50 [10]: 0.631 µM
- IC50 [11]: 3.98 µM
- IC50 [12]: 2 µM

SMILES: O=C(COc1nn(-c2ccccc2)c2ncccc12)NCc1ccccc1
- IC50 at 48 h [1]: > 100 µM
- IC50 [2]: > 50.1 µM
- IC50 [3]: > 39.8 µM
- IC50 [4]: > 50.1 µM
- IC50 [5]: 6.31 µM
- IC50 [6]: > 50.1 µM
- IC50 [7]: 31.6 µM
- IC50 [8]: 12.6 µM
- IC50 [9]: > 39.8 µM
- IC50 [10]: 0.0794 µM
- IC50 [11]: 0.398 µM
- IC50 [12]: 0.316 µM

SMILES: CC(=O)NCCNc1cc(-c2ccnc(Nc3cccc(Cl)c3)n2)ccn1
- IC50 at 48 h [1]: 25.1 µM
- IC50 [2]: 1.58 µM
- IC50 [3]: 0.2 µM
- IC50 [4]: 0.398 µM
- IC50 [5]: 5.01 µM
- IC50 [6]: 0.1 µM
- IC50 [7]: 0.158 µM
- IC50 [8]: 0.398 µM
- IC50 [9]: 0.2 µM
- IC50 [10]: 0.1 µM
- IC50 [11]: 0.316 µM
- IC50 [12]: 0.251 µM
